In data set [1] the target is T1, Solute carrier organic anion transporter family member 1A1 (Rattus norvegicus, UniProt P46720).
T1 sequence (P46720 whole entry): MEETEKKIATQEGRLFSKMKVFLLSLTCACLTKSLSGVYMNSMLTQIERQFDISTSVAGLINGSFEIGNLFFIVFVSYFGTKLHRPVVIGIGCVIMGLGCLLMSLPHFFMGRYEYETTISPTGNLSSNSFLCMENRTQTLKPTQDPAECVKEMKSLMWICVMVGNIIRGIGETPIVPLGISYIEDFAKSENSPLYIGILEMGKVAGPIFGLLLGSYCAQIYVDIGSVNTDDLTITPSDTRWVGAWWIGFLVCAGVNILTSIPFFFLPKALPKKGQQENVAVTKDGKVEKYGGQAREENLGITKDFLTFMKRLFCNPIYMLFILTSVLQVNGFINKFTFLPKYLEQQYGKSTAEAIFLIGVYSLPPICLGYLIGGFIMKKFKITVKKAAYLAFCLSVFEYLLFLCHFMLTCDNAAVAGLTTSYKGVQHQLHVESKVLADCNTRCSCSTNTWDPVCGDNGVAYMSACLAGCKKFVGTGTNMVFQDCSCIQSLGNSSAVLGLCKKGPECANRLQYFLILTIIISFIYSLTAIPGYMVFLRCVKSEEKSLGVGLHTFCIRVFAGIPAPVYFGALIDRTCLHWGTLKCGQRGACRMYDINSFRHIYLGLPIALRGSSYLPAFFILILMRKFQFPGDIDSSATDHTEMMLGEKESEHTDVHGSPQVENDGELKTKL
Description: (§1) TP_TRANSPORTER: uptake in Xenopus laevis oocytes. The class given is functional, cell-based. The following applies: oocyte.

Data set [2] deals with T2, Solute carrier organic anion transporter family member 1B2 (Rattus norvegicus, UniProt Q9QZX8).
T2 sequence (Q9QZX8 whole entry): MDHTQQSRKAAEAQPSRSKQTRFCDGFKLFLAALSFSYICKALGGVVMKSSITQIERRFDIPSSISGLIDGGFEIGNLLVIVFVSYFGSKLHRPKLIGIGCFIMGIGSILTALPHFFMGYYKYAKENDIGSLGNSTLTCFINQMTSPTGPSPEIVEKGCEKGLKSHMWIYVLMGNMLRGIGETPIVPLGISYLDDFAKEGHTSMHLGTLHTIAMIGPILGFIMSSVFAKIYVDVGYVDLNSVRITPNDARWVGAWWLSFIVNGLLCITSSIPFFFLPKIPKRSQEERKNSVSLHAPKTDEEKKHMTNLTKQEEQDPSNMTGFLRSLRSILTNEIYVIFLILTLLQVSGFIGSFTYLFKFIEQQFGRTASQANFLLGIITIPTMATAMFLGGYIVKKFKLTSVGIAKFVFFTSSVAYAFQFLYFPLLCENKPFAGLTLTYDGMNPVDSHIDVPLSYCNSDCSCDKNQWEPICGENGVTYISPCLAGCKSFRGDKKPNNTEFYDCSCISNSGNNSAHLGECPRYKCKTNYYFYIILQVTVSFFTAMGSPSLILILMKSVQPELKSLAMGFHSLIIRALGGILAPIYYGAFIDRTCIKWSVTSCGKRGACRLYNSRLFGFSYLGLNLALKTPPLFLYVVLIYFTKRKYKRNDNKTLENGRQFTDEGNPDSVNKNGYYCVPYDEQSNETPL
The data set is described as §1. It is filed as functional, cell-based. The following applies: oocyte.

Data set [3] deals with T3, Solute carrier organic anion transporter family member 1A5 (Rattus norvegicus, UniProt O88397).
T3 sequence (O88397 whole entry): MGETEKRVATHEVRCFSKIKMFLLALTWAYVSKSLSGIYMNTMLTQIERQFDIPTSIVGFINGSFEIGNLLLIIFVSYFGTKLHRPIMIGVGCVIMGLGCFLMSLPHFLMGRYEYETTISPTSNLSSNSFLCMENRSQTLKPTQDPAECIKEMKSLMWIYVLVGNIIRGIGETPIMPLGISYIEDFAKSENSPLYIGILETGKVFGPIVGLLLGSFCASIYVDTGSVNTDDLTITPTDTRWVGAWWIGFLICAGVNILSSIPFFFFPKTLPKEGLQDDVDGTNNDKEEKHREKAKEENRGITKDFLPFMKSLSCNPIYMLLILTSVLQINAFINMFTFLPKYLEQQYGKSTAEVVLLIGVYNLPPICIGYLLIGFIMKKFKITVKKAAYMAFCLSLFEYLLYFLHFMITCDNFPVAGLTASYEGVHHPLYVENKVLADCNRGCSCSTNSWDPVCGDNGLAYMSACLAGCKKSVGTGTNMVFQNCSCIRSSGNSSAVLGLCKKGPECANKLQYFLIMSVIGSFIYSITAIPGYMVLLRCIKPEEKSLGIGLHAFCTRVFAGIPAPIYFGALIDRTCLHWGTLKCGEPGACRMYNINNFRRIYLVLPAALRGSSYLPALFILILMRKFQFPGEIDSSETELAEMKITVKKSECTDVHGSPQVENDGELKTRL
Described as §1. The class given is functional, cell-based, Oocyte. The settings on record: oocyte.

In data set [4] the target is T4, Solute carrier organic anion transporter family member 1A4 (Rattus norvegicus, UniProt O35913).
T4 sequence (O35913 whole entry): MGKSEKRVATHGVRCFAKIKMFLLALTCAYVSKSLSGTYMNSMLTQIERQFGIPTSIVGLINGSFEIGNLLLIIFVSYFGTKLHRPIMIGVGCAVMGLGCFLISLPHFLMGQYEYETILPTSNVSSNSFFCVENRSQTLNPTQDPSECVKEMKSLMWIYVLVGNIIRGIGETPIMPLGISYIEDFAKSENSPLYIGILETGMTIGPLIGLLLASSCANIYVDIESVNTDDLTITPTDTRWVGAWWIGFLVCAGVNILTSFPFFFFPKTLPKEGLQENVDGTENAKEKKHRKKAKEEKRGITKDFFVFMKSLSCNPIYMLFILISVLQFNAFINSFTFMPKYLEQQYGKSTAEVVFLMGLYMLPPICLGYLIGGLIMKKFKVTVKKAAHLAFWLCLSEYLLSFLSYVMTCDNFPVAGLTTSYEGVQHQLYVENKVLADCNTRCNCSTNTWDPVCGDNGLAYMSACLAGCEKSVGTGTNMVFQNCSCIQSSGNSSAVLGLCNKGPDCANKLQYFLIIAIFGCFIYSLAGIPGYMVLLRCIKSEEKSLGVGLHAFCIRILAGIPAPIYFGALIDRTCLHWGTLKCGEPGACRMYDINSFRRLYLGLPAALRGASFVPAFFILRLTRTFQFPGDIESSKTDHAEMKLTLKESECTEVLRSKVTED
Described as §1. The following applies: oocyte. The class given is functional, cell-based.

Data set [5] deals with T5, Solute carrier organic anion transporter family member 1A5 (Oatp1a5) (Rattus norvegicus, UniProt O88397).
T5 sequence (O88397 whole entry): T3 sequence (O88397 whole entry)
The description is as §1. It is filed as functional, cell-based, Oocyte. The settings on record: Xenopus laevis oocytes.

Substrate in data set [6]: C[C@]12CC[C@@H]3c4ccc(O)cc4CC[C@H]3[C@@H]1CC[C@@H]2O[C@@H]1O[C@H](C(=O)O)[C@@H](O)[C@H](O)[C@H]1O
Described as §1. The class given is functional, cell-based, Oocyte.

Substrate in data set [7]: CC1(C)SSC(C)(C)[C@@H](NC(=O)[C@@H](N)Cc2ccc(O)cc2)C(=O)NCC(=O)N[C@@H](Cc2ccccc2)C(=O)N[C@H]1C(=O)O
The description is as §1. The class given is functional, cell-based, Oocyte.

Substrate in data set [8]: CC(C)C[C@@H]1NC(=O)[C@@H](C(C)C)NC(=O)[C@@H]2CCCN2C(=O)[C@@H](CC(=O)O)NC(=O)[C@@H](Cc2c[nH]c3ccccc23)NC1=O
The description is as §1. It is filed as functional, cell-based, Oocyte.

Substrate in data set [9]: C[C@]12CC[C@@H]3c4ccc(OS(=O)(=O)O)cc4CC[C@H]3[C@@H]1CCC2=O
The data set is described as §1. The class given is functional, cell-based, Oocyte.

Substrate in data set [10]: CCCCC[C@H](O)/C=C/[C@H]1[C@H](O)CC(=O)[C@@H]1C/C=C\CCCC(=O)O
The data set is described as §1. The class given is functional, cell-based, Oocyte.

Substrate in data set [11]: O=C1OC(c2ccc(O)c(S(=O)(=O)O)c2)(c2ccc(O)c(S(=O)(=O)O)c2)c2c(Br)c(Br)c(Br)c(Br)c21
The data set is described as §1. The class given is functional, cell-based, Oocyte.

Substrate in data set [12]: [H][C@@]12CC=C3C[C@@H](OS(=O)(=O)O)CC[C@]3(C)[C@@]1([H])CC[C@]1(C)C(=O)CC[C@@]21[H]
The description is as §1. The class given is functional, cell-based, Oocyte.

Substrate in data set [13]: CCCCC/C=C\C\C=C/C=C/C=C/[C@@H](SC[C@@H](NC(=O)CC[C@H](N)C(=O)O)C(=O)NCC(=O)O)[C@@H](O)CCCC(=O)O
The description is as §1. It is filed as functional, cell-based, Oocyte.

Regarding `CN(Cc1cnc2nc(N)nc(N)c2n1)c1ccc(C(=O)N[C@@H](CCC(=O)O)C(=O)O)cc1` [METHOTREXATE], the Activity entry in data set [1], in data set [2] and in data set [3] was “is not a substrate [-]” throughout.

With `C=C[C@H]1C[N+]2(C)CC[C@H]1C[C@H]2[C@H](O)c1ccnc2ccc(OC)cc12`, the Activity result in data set [2] and in [3] was “is not a substrate [-]” each time.

In the case of `Nc1ccc(C(=O)NCC(=O)O)cc1` [AMINOHIPPURIC ACID], the Activity result in data set [4], in data set [2] and in [3] was “is not a substrate [-]” in each case.

Turning to `CC(C)[C@H](NC(=O)[C@H](CCC(=O)O)NC(=O)[C@H](Cc1ccccc1)NC(=O)[C@@H](C)NC(=O)[C@@H](N)Cc1ccc(O)cc1)C(=O)N[C@H](C(=O)NCC(N)=O)C(C)C` [DELTORPHIN II], the Activity entry in data set [2] and in [3] was “is not a substrate [-]” in each case.

As for `C[C@@H]1O[C@@H](O[C@H]2C[C@@H](O)[C@]3(CO)[C@H]4[C@H](O)C[C@]5(C)[C@@H](C6=CC(=O)OC6)CC[C@]5(O)[C@@H]4CC[C@]3(O)C2)[C@H](O)[C@H](O)[C@H]1O` [OUABAIN], the Activity result in data set [2] was “is not a substrate [-]”. In data set [5], the Km stood at 1570 µM.

For the molecule `CC[N+](CC)(CC)CC` [TETRYLAMMONIUM], the Activity entry in [1], in [4], in [2] and in data set [3] was “is not a substrate [-]” throughout.

On to `C=CC[N+]1([C@H]2C[C@H]3[C@@H]4CC[C@H]5C[C@H](O)[C@@H](N6CCOCC6)C[C@]5(C)[C@H]4CC[C@]3(C)[C@H]2OC(C)=O)CCCC1` [ROCURONIUM], for which the Activity entry was “is not a substrate [-]” in data set [2] and “substrate [+]” in data set [3].

On to `CCCCC[C@H](O)/C=C/[C@H]1[C@H](O)CC(=O)[C@@H]1C/C=C\CCCC(=O)O` [DINOPROSTONE], for which, in data set [1], the Activity result was “is not a substrate [-]”.

B1: Solute carrier organic anion transporter family member 1A5 (Rattus norvegicus) (protein)
chain: T3 sequence (O88397 whole entry)
On to B1, for which the Km is 39 µM in data set [6]; 137 µM in data set [7]; 417 µM in data set [8]; 268 µM in data set [9]; 35 µM in data set [10]; 8.3 µM in data set [11]. The Km in [12] came out at 162 µM.

B2: Solute carrier organic anion transporter family member 1B2 (Rattus norvegicus) (protein)
chain: T2 sequence (Q9QZX8 whole entry)
As to B2, the Km in data set [6] amounted to 32 µM; in data set [7], 22 µM; in data set [8] it was 13.8 µM; in [9], 37 µM; in [13] it was 6.5 µM; in [10] it was 13 µM. For the same molecule, the Km in data set [12] is 5.3 µM.

Broadly, the Km is the substrate concentration at which the rate is half of its maximum.

The record behind these values is ChEMBL document CHEMBL2073894, “Localization of organic anion transporting polypeptide 4 (Oatp4) in rat liver and comparison of its substrate specificity with Oatp1, Oatp2 and Oatp3” (Pflugers Arch, 2001).
